The record followed here is ChEMBL document CHEMBL5465560, “Selectivity Literature for EUbOPEN Chemogenomic Library” (2024).

In experiment [1] the target is Mitogen-activated protein kinase 10 (Homo sapiens, UniProt P53779). Nature of the experiment: Selectivity interaction (SelectScreen profiling (Invitrogen)) EUB0000607a MAPK10. The conditions noted are these: at 2 µM.
In experiment [2] the target is Mitogen-activated protein kinase kinase kinase 11 (Homo sapiens) (UniProt Q16584). As to the kind of experiment: Selectivity interaction (KinomeScan (DiscoverX)) EUB0001079a MAP3K11. The conditions noted are these: at 1 µM.
The target in experiment [3] is Platelet-derived growth factor receptor alpha (Homo sapiens, UniProt P16234). Nature of the experiment: Selectivity interaction (KinomeScan (DiscoverX)) EUB0001079a PDGFRA. The conditions noted are these: at 1 µM.
The target in experiment [4] is Beta-1 adrenergic receptor (Homo sapiens, UniProt P08588). Nature of the experiment: Selectivity interaction (Beta 1 adrenergic receptor assay, human recombinant ) EUB0000877a ADRB1.
Experiment [5] concerns the target T1, Serine/threonine-protein kinase BRSK1 (Homo sapiens) (UniProt Q8TDC3).
T1 sequence (whole entry): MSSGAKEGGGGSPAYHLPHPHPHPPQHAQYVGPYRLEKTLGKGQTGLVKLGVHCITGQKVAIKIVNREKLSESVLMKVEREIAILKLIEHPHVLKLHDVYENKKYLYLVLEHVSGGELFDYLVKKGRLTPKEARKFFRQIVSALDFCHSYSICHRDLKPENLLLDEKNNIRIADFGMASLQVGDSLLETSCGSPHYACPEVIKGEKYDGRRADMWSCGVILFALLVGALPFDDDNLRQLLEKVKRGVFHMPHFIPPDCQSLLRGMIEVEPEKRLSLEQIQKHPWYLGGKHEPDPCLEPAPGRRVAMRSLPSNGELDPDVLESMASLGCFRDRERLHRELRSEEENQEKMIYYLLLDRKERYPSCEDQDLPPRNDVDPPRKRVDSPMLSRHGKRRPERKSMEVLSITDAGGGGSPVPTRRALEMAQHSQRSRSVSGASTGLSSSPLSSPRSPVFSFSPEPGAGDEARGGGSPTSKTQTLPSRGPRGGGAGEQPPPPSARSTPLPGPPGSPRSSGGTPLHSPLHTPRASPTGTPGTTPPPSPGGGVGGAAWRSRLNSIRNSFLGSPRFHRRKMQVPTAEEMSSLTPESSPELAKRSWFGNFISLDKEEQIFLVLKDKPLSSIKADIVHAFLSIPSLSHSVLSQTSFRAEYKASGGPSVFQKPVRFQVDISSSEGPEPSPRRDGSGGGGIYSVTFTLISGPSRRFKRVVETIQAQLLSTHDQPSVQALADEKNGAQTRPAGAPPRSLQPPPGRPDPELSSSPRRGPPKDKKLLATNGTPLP
Nature of the experiment: Selectivity interaction (Kinase panel (Invitrogen)) EUB0000639a BRSK1. The conditions noted are these: at 200 nM.

Experiment [6] addresses T2, Inhibitor of nuclear factor kappa-B kinase subunit beta (Homo sapiens) (UniProt O14920).
T2 sequence (whole entry): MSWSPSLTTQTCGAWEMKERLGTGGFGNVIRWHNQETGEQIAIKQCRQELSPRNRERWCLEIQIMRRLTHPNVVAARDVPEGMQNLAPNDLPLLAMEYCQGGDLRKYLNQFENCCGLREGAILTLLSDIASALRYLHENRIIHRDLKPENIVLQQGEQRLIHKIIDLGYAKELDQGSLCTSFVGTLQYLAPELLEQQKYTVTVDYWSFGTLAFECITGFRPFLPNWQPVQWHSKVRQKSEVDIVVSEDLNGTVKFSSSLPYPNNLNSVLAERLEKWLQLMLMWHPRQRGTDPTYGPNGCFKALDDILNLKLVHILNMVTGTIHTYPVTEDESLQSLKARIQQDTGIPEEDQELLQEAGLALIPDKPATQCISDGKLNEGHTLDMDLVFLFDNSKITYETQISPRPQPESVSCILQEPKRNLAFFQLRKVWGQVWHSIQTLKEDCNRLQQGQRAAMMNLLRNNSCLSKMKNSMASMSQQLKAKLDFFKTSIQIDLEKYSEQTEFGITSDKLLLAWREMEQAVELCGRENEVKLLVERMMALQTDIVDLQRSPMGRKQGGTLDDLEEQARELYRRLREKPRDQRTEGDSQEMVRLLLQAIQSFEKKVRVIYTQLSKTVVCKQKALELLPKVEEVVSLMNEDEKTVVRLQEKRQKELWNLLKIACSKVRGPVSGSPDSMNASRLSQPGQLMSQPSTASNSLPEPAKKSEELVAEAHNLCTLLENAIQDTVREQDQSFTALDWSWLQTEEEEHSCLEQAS
As to the kind of experiment: Selectivity interaction (ActivX KiNativ screen (kinase selectivity in THP-1 cell lysates)) EUB0000639a IKBKB. It is filed as subcellular. The following applies: lysate, at 0.2 µM.

In experiment [7] the target is Mitogen-activated protein kinase kinase kinase 11 (Homo sapiens) (UniProt Q16584). Nature of the experiment: Selectivity interaction (ActivX KiNativ screen (kinase selectivity in THP-1 cell lysates)) EUB0000639a MAP3K11. The conditions noted are these: lysate, at 0.2 µM. In kind it is subcellular.
The target in experiment [8] is T3, Beta-adrenergic receptor kinase 1 (Homo sapiens) (UniProt P25098).
T3 sequence (whole entry): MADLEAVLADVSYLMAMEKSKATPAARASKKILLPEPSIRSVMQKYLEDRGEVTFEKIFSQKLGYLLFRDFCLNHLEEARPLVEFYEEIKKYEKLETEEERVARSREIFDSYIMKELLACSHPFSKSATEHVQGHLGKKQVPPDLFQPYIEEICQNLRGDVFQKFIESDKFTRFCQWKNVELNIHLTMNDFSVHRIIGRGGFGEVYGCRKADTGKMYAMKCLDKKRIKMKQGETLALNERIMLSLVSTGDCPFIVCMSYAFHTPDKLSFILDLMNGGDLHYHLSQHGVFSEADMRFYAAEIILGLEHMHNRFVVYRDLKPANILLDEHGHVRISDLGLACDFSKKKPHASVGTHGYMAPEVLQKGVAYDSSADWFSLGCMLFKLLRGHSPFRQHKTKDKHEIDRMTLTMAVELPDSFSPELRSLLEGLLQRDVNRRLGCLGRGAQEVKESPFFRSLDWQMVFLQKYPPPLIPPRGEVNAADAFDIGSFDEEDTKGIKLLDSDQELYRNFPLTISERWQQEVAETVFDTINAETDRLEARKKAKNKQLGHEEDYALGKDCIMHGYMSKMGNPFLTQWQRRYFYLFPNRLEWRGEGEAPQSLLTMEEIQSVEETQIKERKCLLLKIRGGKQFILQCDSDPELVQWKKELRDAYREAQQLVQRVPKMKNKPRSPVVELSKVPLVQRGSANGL
As to the kind of experiment: Selectivity interaction (ProQinase) EUB0000171b ADRBK1.

Experiment [9] has as its target Protein kinase C beta type (Homo sapiens, UniProt P05771). Nature of the experiment: Selectivity interaction (ProQinase) EUB0000171b PRKCB.
The target in experiment [10] is Non-receptor tyrosine-protein kinase TYK2 (Homo sapiens, UniProt P29597). Nature of the experiment: Selectivity interaction (KinomeScan (DiscoverX)) EUB0000045b TYK2. The following applies: at 10 µM.
The target in experiment [11] is Casein kinase I isoform gamma-1 (Homo sapiens) (UniProt Q9HCP0). Nature of the experiment: Selectivity interaction (KinomeScan (DiscoverX)) EUB0000595a CSNK1G1. The conditions noted are these: at 10 µM.
Chain of Casein kinase I isoform gamma-1 (Homo sapiens) (Q9HCP0 whole entry, looked up, canonical isoform): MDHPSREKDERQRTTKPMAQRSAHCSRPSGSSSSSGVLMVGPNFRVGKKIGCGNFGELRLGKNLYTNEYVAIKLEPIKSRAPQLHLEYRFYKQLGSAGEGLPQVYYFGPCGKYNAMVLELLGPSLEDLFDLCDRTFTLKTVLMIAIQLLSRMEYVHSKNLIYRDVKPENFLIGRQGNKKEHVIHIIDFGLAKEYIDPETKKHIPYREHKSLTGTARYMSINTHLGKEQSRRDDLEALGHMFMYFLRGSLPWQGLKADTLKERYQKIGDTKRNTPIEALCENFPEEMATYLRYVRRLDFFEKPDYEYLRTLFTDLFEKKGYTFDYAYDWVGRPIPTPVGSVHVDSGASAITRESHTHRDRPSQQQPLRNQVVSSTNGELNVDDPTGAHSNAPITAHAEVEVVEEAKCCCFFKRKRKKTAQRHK

Chain of Mitogen-activated protein kinase kinase kinase 11 (Homo sapiens) (Q16584 whole entry, looked up): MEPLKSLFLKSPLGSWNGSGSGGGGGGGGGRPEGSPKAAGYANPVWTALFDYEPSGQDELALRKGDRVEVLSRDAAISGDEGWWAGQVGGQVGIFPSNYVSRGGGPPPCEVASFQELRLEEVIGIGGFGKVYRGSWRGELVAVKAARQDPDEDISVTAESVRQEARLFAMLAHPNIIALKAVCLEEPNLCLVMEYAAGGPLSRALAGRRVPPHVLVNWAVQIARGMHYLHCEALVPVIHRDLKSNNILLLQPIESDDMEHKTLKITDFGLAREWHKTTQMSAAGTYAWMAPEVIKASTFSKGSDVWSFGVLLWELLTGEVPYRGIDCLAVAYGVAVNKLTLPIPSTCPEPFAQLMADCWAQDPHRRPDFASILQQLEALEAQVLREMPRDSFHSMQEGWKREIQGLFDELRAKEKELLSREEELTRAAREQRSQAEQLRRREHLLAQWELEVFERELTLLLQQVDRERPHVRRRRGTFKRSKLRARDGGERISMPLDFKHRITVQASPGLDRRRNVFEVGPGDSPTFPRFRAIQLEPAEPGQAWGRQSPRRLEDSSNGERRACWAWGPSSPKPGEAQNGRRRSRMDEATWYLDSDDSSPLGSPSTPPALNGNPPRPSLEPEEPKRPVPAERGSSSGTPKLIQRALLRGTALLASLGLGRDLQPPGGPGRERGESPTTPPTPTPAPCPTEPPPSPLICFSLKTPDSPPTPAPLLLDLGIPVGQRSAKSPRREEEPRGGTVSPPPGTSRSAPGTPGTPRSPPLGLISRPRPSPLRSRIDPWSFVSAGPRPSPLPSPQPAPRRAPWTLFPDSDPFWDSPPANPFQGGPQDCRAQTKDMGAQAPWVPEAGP
Chain of Protein kinase C beta type (P05771 2-671 limits assumed): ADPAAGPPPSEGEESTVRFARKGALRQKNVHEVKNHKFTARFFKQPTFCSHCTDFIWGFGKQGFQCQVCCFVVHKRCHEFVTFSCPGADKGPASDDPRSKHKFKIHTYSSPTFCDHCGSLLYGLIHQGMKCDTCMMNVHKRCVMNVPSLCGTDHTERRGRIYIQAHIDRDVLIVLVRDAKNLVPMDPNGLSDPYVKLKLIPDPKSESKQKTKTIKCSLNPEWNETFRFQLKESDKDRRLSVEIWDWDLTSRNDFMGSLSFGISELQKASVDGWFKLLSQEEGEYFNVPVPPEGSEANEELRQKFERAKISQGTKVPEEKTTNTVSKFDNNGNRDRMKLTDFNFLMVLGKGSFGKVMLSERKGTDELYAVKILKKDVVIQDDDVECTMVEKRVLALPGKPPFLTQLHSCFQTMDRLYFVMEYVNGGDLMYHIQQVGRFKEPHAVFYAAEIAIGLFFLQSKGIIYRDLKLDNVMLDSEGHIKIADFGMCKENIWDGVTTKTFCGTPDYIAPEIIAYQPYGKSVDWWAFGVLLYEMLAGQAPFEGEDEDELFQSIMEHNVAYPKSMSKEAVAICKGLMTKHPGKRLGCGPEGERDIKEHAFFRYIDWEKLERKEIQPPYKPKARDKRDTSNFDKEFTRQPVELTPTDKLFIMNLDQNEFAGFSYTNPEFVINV
Chain of Mitogen-activated protein kinase 10 (P53779 whole entry): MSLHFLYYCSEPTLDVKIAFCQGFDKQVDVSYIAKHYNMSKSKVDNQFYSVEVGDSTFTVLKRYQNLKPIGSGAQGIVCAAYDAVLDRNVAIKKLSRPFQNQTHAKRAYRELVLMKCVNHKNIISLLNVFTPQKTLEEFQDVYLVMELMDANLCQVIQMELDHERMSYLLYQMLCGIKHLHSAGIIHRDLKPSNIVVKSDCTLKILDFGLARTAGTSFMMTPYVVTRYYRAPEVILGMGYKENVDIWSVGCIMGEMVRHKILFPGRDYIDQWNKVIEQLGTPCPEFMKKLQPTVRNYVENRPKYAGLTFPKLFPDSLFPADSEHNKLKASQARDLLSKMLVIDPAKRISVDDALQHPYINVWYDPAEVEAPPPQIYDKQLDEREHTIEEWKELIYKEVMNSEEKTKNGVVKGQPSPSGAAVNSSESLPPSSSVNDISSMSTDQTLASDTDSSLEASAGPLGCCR
Chain of Platelet-derived growth factor receptor alpha (P16234 whole entry): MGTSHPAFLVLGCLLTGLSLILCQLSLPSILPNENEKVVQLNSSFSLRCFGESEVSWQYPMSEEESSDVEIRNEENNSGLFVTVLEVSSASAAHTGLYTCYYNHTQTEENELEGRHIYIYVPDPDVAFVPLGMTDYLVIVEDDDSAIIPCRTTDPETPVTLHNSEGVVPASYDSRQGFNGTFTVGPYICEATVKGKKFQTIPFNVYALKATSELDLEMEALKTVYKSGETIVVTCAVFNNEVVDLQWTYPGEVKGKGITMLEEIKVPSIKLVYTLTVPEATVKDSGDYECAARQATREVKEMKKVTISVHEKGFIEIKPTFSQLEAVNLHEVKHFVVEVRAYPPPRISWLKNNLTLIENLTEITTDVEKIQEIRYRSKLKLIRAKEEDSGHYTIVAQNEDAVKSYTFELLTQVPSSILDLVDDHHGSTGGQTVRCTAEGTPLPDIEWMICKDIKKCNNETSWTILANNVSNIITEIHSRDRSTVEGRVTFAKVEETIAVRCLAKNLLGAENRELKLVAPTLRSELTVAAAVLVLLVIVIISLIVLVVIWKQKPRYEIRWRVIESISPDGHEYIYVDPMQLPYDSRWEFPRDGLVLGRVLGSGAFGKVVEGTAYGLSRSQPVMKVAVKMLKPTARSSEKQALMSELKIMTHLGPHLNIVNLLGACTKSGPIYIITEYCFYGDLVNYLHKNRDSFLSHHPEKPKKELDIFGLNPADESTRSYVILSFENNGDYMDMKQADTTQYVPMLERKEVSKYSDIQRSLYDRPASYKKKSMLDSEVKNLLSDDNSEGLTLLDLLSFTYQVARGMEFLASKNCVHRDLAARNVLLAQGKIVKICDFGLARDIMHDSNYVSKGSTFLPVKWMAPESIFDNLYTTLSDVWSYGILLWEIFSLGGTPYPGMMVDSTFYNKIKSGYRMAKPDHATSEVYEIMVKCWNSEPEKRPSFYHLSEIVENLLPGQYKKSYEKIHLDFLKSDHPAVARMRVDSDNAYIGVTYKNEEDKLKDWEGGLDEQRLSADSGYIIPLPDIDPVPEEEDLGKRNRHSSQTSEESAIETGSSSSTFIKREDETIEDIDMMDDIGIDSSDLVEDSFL
Chain of Non-receptor tyrosine-protein kinase TYK2 (P29597 whole entry, canonical isoform): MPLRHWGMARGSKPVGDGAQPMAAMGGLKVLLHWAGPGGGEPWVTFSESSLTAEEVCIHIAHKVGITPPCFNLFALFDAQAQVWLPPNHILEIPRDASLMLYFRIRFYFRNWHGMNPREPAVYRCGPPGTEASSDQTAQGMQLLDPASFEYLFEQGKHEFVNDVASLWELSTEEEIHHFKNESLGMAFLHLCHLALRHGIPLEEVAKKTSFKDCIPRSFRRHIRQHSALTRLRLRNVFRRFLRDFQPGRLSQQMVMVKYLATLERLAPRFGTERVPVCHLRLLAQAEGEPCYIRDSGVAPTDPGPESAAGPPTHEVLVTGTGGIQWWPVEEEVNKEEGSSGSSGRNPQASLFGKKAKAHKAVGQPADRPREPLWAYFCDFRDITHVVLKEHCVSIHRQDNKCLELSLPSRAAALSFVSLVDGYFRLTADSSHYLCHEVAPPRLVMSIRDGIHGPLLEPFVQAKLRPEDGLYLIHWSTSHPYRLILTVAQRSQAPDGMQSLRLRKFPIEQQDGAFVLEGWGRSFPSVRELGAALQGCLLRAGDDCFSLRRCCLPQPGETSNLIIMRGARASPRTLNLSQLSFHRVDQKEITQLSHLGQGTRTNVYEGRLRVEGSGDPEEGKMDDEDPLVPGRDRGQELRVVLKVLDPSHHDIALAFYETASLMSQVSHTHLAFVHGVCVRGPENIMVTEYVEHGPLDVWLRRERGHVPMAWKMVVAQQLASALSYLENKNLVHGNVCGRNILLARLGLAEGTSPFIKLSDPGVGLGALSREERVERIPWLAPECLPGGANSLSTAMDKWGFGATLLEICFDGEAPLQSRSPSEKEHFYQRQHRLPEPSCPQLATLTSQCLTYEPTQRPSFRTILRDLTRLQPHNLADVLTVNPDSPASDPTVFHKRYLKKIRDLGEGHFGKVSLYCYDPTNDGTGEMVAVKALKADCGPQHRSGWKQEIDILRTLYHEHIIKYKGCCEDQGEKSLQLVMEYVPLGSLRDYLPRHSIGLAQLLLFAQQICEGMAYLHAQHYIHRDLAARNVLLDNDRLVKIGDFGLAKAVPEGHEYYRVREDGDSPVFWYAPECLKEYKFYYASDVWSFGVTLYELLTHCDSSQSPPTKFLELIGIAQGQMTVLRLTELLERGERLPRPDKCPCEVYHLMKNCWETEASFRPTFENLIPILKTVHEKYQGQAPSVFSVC

In the case of `CNC(=O)Nc1ccc(-c2nc(N3CC4CCC(C3)O4)c3cnn(C4CCC5(CC4)OCCO5)c3n2)cc1`, the % of inhibition in experiment [1] came to 14%.

For `Nc1cnc(N2CCc3cc(S(=O)(=O)Nc4c(F)cc(Cl)cc4F)cc(N4CCCC4=O)c32)nc1` [TP-020n], the % of control in [2] stood at 100%; in experiment [3], 89%.

As usually defined, the IC50 is the point on the concentration scale where inhibition reaches its midpoint. `CCC(=O)N1CC[C@H](Nc2ncnc3c2CN(c2cnc(OC)c(C(F)(F)F)c2)CC3)C1` [LENIOLISIB]: the IC50 in experiment [4] was greater than 30 µM.

For `CC[C@@H]1[C@H](F)C(=O)N[C@@H]1COc1nccc2cc(C(N)=O)c(OC)cc12` [ZIMLOVISERTIB], the % of inhibition in experiment [5] is 23.6%; in experiment [6], -2.2%; in [7], -15.6%.

For `C=CC(=O)Nc1cccc(C(=O)Nc2ccc(Nc3cc(-c4[nH]c(SC)nc4C)ccn3)cc2)c1`, the % of control in experiment [8] (at 1 µM) amounted to 101%; in experiment [8] (at 5 µM), 88%; in experiment [9] (at 1 µM), 111%; in [9] (at 5 µM) it was 106%.

Consider `C=CC(=O)Nc1cc(-n2c(=O)ccc3cnc4ccc(-c5ccc(NS(C)(=O)=O)cc5)cc4c32)ccc1C`, for which the % of control in experiment [10] amounted to 100%.

Regarding `COCC(=O)NC/C=C/c1ccc2ncnc(Nc3ccc(Oc4ccc(C)nc4)c(C)c3)c2c1` [CP-724714], in [11], the % of control was 100%.
